Paper PMC10421158, “In Vitro and In Silico Analysis of the Anticancer Effects of Eurycomanone and Eurycomalactone from Eurycoma longifolia” (Plants, 2023)
Read-outs that look alike come from different tables or passages of the source.

Legend:
[1] = tested on: liver (WRL-68) normal cell line; test: Sulforhodamine B (SRB) cell viability assay, WRL-68; assay type: cell-based; settings: read-out: IC50 WRL-68
Text: (§1) The cancer cell lines used for this study were ovarian cancer (A2780), cervical cancer (HeLa) and colorectal cancer (HT29) as well as normal cardiomyocyte (H9C2) and liver (WRL-68) cell lines. All cell lines were purchased from American Type Culture Collections except A2780, which were purchased from the European Collection of Authenticated Cell Cultures. These cells were subcultured in Dulbecco’s Modified Eagle’s medium (Sigma-Aldrich, St. Louis, MO, USA) and supplemented with 10% fetal bovine serum (Sigma, USA), 1% penicillin–streptomycin (Sigma, USA), 1% amphotericin B (Sigma, USA) and 1% gentamicin (Sigma, USA). The cells were seeded in each well of 96 well plates and incubated in a humidified incubator at 37 °C and 5% carbon dioxide in air for 24 h. Each cell line was then treated with eurycomanone and eurycomalactone at five different concentrations (0.08, 0.4, 2, 10 and 50 µM) in triplicate. Cisplatin and methotrexate (Sigma, USA), known chemo-drugs, were also treated on these cell lines at five different concentrations (0.08, 0.4, 2, 10, 50 µM for cisplatin, 0.0008, 0.004, 0.02, 0.1, 0.5 µM for methotrexate) for the comparative studies. The treated cells were then incubated in the same incubator with the mentioned conditions for 72 h. The experiment was repeated at least three times.
(§2) Sulforhodamine B (SRB) assay had been performed after the treated cells were incubated for 72 h. Briefly, 50 μL of ice cold tricholoroacetic acid (TCA) was added to each well and allowed to stand for 30 min at room temperature, followed by rinsing each well with tap water. Then, 100 μL of 0.4% SRB was added to each well to stain living cells for 30 min followed by a rinse with 1% acetic acid. Finally, 100 μL of Tris buffer was added to each well and the optical density (OD) of the treated and nontreated cells were read at 492 nm with a Magellan V.4 microtiter plate reader (Tecan, Salzburg, Austria). The percentage of cell viability was calculated based on (OD492nm of the treated cells/OD492nm of the nontreated cells) × 100. The IC50 values were determined from the dose–response curve of percentage of cell viability versus the concentration of the compounds (μM). Cells viability assay for each treatment was performed in triplicate in at least three independent experiments, and the IC50 values are given as the mean ± SEM.

[2] = tested on: cervical (HeLa) cancer cell line; test: Sulforhodamine B (SRB) cell viability assay, HeLa; assay type: cell-based; settings: 72 h, read-out: IC50 HeLa
Text: as §1, §2

[3] = tested on: cardiomyocyte (H9C2) normal cell line; test: Sulforhodamine B (SRB) cell viability assay, H9C2; assay type: cell-based; settings: read-out: IC50 H9C2
Text: as §1, §2

[4] = tested on: ovarian (A2780) cancer cell line; test: Sulforhodamine B (SRB) cell viability assay, A2780; assay type: cell-based; settings: read-out: IC50 A2780
Text: as §1
as §2, with “Briefly,” for “Sulforhodamine B (SRB) assay had been performed after the treated cells were incubated for 72 h. Briefly,”

[5] = tested on: colorectal (HT29) cancer cell line; test: Sulforhodamine B (SRB) cell viability assay, HT-29; assay type: cell-based; settings: read-out: IC50 HT-29
Text: as §1, §2

A2780 cells = test: Apoptotic Hoechst 33342 assay, A2780; assay type: cell-based
Experimental: (§3) A2780, HT-29 and HeLa cancer cell lines were chosen for evaluating the apoptotic effects of eurycomanone and eurycomalactone. The morphological changes of cells undergoing apoptosis were visualised under a fluoresecence microscope after performing the Hoechst 33342 assay. Briefly, 10 × 10^4 cells were seeded for 500 µL/well of four Labtek® Chamber Slides (Thermo Fisher Scientific, Waltham, MA, USA) and incubated in 5% carbon dioxide in air for 24 h for the cells’ attachment. The cells were treated with concentrations of IC50/5, IC50 and IC50 × 5 values of eurycomanone and eurycomalactone in different wells and further incubated for 6, 24 and 48 h, respectively. Nontreated cells were also included in the experimental design, which acted as a negative control in this study. Following this, the media from each well were discarded and cells were fixed with 4% (w/v) paraformaldehyde for 30 min. The cells were then washed with cold phosphate buffer solution (PBS) prior to staining using Hoechst 33342, according to the method of [26]. Quantitative assessment of apoptotic cells were determined by counting apoptotic nuclei from five randomly chosen areas corroborating visual impression based on the morphology shown in Figure 3 and Figure 4. The apoptotic index (number of apoptotic nuclei per total nuclei × 100) was expressed as a percentage of the mean ± S.E.M and analysed using ANOVA followed by Tukey’s multiple comparison test.

HeLa cells = test: Apoptotic Hoechst 33342 assay, HeLa; assay type: cell-based
Experimental: as §3

HT-29 cells = test: Apoptotic Hoechst 33342 assay, HT-29; assay type: cell-based
Experimental: as §3

[6] = tested on: ovarian (A2780), cervical (HeLa) and colorectal (HT29) cancer cells; test: SRB assay, range over the three cancer cell lines; assay type: cell-based; settings: 72 h, read-out: range of IC50 values in cancer cell lines
Text: as §1
as §2, with “Briefly,” for “Sulforhodamine B (SRB) assay had been performed after the treated cells were incubated for 72 h. Briefly,”, “Cells viability assay for each treatment was performed in triplicate in at least three independent experiments, and the IC50 values are given as the mean ± SEM.” left out

[7] = tested on: Cytochrome P450 (CYP) enzymes; set-up: method as in PMID 23881640; settings: in vitro assay; cited from earlier work
[8] = set-up: method as in PMID 16206032; settings: in vivo, given orally; cited from earlier work
[9] = SRB, 72 h, normal cell line, mean ± SEM (n = 9)

SMILES	Apoptotic index (A2780 cells; A2780, IC50, 6 h)	Apoptotic index (A2780 cells; A2780, IC50, 24 h)	Apoptotic index (A2780 cells; A2780, IC50, 48 h)	Apoptotic index (A2780 cells; A2780, IC50/5, 6 h)	Apoptotic index (A2780 cells; A2780, IC50/5, 24 h)	Apoptotic index (A2780 cells; A2780, IC50/5, 48 h)	Apoptotic index (A2780 cells; A2780, IC50 × 5, 6 h)	Apoptotic index (A2780 cells; A2780, IC50 × 5, 24 h)	Apoptotic index (A2780 cells; A2780, IC50 × 5, 48 h)	IC50 ([1]; Homo sapiens, WRL68, 72 h)	Apoptotic index (HeLa cells; IC50, 6 h)	Apoptotic index (HeLa cells; IC50, 24 h)	Apoptotic index (HeLa cells; IC50, 48 h)	Apoptotic index (HeLa cells; IC50/5, 6 h)	Apoptotic index (HeLa cells; IC50/5, 24 h)	Apoptotic index (HeLa cells; IC50/5, 48 h)	Apoptotic index (HeLa cells; IC50 × 5, 6 h)	Apoptotic index (HeLa cells; IC50 × 5, 24 h)	Apoptotic index (HeLa cells; IC50 × 5, 48 h)	Apoptotic index (HT-29 cells; HT-29, IC50, 6 h)	further results
N.N.[Cl][Pt][Cl] [Cisplatin, reference compound]	–	–	–	–	–	–	–	–	–	–	–	–	–	–	–	–	–	–	–	–	IC50 [1, 9]: 1130 ± 98 nM; IC50 ([2]; SRB, mean ± SEM (n = 9)): 1540 ± 120 nM; IC50 [3, 9]: 14100 ± 1140 nM; IC50 ([4]; SRB, 72 h, mean ± SEM (n = 9)): 1770 ± 18 nM; IC50 ([5]; SRB, 72 h, mean ± SEM (n = 9)): 1380 ± 37 nM
CC1=CC(=O)[C@@H](O)[C@@]2(C)[C@H]1CC(=O)[C@@]1(C)[C@H]3C(=O)O[C@H]([C@@H]3C)[C@H](O)[C@@H]12 [Eurycomalactone]	4.26 ± 0.64 ^b/x %	6.29 ± 0.21 ^ab/y %	7.93 ± 2.28 ^b/xz %	3.84 ± 0.10 ^a/x %	4.12 ± 0.16 ^a/y %	5.16 ± 0.065 ^a/xz,yz %	15.81 ± 0.38 ^ac,bc/x %	Cells died and completely detached ^ac,bc/xy	Cells died and completely detached ^ac,bc/xz	2710 ± 42 nM	17.67 ± 0.77 ^ab/x %	32.00 ± 1.57 ^ab/xy %	36.71 ± 1.19 ^ab/xz,yz %	5.45 ± 0.23 ^a/x %	8.94 ± 0.21 ^a/xy %	14.78 ± 0.12 ^a/xz,yz %	31.87 ± 2.19 ^ac,bc/x %	62.20 ± 1.35 ^ac,bc/xy %	100.00 ± 0.00 ^ac,bc/xz,yz %	4.51 ± 0.23 ^b/x %	Apoptotic index (HT-29 cells; HT-29, IC50, 24 h): 12.41 ± 0.77 ^ab/xy %; Apoptotic index (HT-29 cells; HT-29, IC50, 48 h): 14.28 ± 0.84 ^ab/xz,yz %; Apoptotic index (HT-29 cells; HT-29, IC50/5, 6 h): 3.79 ± 0.45 ^a/x %; Apoptotic index (HT-29 cells; HT-29, IC50/5, 24 h): 7.71 ± 0.51 ^a/xy %; Apoptotic index (HT-29 cells; HT-29, IC50/5, 48 h): 8.86 ± 0.68 ^a/xz %; Apoptotic index (HT-29 cells; HT-29, IC50 × 5, 6 h): 6.52 ± 1.22 ^ac,bc/x %; Apoptotic index (HT-29 cells; HT-29, IC50 × 5, 24 h): 20.21 ± 1.52 ^ac,bc/xy %; Apoptotic index (HT-29 cells; HT-29, IC50 × 5, 48 h): 100.00 ± 0.00 ^ac,bc/xz,yz %; IC50 ([2]; Homo sapiens, HeLa): 1600 ± 120 nM; IC50 ([3]; Rattus norvegicus, H9c2, 72 h): 7000 ± 430 nM; IC50 ([4]; Homo sapiens, A2780, 72 h): 2460 ± 81 nM; IC50 [6]: 1600 to 2460 nM; IC50 ([5]; Homo sapiens, HT-29, 72 h): 2210 ± 49 nM
C=C1[C@@H](O)[C@]2(O)OC[C@]34[C@H]2[C@@]2(C)[C@H](O)C(=O)C=C(C)[C@@H]2C[C@H]3OC(=O)[C@H](O)[C@@]14O [Eurycomanone]	8.48 ± 0.60 ^ab/x %	13.13 ± 1.30 ^ab/y %	31.74 ± 3.19 ^ab/xz,yz %	4.30 ± 0.34 ^a/x %	7.11 ± 1.60 ^a/xy %	14.72 ± 0.59 ^a/xz,yz %	13.01 ± 0.29 ^ac,bc/x %	28.90 ± 0.93 ^ac,bc/xy %	100.00 ± 0.00 ^ac,bc/xz,yz %	1340 ± 46 nM	19.98 ± 0.76 ^ab/x %	52.57 ± 1.40 ^ab/y %	61.16 ± 0.63 ^ab/xz,yz %	8.42 ± 0.20 ^a/x %	13.76 ± 1.26 ^a/xy %	16.79 ± 0.92 ^a/xz,yz %	41.37 ± 0.24 ^ac,bc/x %	94.56 ± 1.16 ^ac,bc/xy %	100.00 ± 0.00 ^ac,bc/xz,yz %	5.24 ± 0.17 ^b/x %	inhibition of cytochromes in vitro [7]: no inhibition; oral bioavailability [8]: poorly bioavailable; Apoptotic index (HT-29 cells; HT-29, IC50, 24 h): 6.30 ± 1.01 ^b/y %; Apoptotic index (HT-29 cells; HT-29, IC50, 48 h): 14.80 ± 0.56 ^ab/xz,yz %; Apoptotic index (HT-29 cells; HT-29, IC50/5, 6 h): 4.08 ± 0.81 ^a/x %; Apoptotic index (HT-29 cells; HT-29, IC50/5, 24 h): 4.18 ± 0.21 ^a/y %; Apoptotic index (HT-29 cells; HT-29, IC50/5, 48 h): 4.24 ± 0.20 ^a/z %; Apoptotic index (HT-29 cells; HT-29, IC50 × 5, 6 h): 5.97 ± 0.35 ^ac/x %; Apoptotic index (HT-29 cells; HT-29, IC50 × 5, 24 h): 10.95 ± 0.71 ^ac,bc/y %; Apoptotic index (HT-29 cells; HT-29, IC50 × 5, 48 h): 26.20 ± 1.48 ^ac,bc/xz,yz %; IC50 ([2]; Homo sapiens, HeLa): 4580 ± 90 nM; IC50 ([3]; Rattus norvegicus, H9c2, 72 h): > 50000 nM; IC50 ([4]; Homo sapiens, A2780, 72 h): 1370 ± 130 nM; IC50 [6]: 1220 to 4580 nM; IC50 ([5]; Homo sapiens, HT-29, 72 h): 1220 ± 110 nM
CN(Cc1cnc2nc(N)nc(N)c2n1)c1ccc(C(=O)N[C@@H](CCC(=O)O)C(=O)O)cc1 [Methotrexate, reference compound]	–	–	–	–	–	–	–	–	–	–	–	–	–	–	–	–	–	–	–	–	IC50 ([1]; Homo sapiens, WRL68, SRB, 72 h, normal cell line, mean ± SEM (n = 9)): 15 ± 0.41 nM; IC50 ([2]; Homo sapiens, HeLa, SRB, mean ± SEM (n = 9)): 94 ± 4.3 nM; IC50 ([3]; Rattus norvegicus, H9c2, SRB, 72 h, normal cell line, mean ± SEM (n = 9)): > 50000 nM; IC50 ([4]; Homo sapiens, A2780, SRB, 72 h, mean ± SEM (n = 9)): 16 ± 0.5 nM; IC50 ([6]; range over A2780, HeLa, HT29, SRB): 16 to 94 nM; IC50 ([5]; Homo sapiens, HT-29, SRB, 72 h, mean ± SEM (n = 9)): 59 ± 1 nM
